From publication PMC10961359, “Targeting hexokinase 2 for oral cancer therapy: structure-based design and validation of lead compounds” (Frontiers in Pharmacology, 2024)

Columns and labels:
Type in all cases: cell-based
Cal27 cells [1] = assay: Cell cycle analysis (propidium iodide, flow cytometry), Cal27; details: Cal27, 10 and 30 μM, 72 h
Method: FaDu and Cal27 cells were treated with the test compounds (0.5 million cells per treatment) for 72 h, and harvested for cell cycle analysis (Cat# BD340242) and apoptosis analysis (Cat# BD556547) by flow cytometry according to manufacturer’s instructions.
To determine the effect of HK2 inhibition in the progression of the cell cycle, flow cytometric analysis of compound-treated FaDu and Cal27 cells was carried out 72 h post-treatment. Cell cycle analysis is carried out to quantify the DNA content and estimate the percentages of the cell population in different cell cycle phases via propidium iodide staining. […] To determine the apoptosis-inducing activity of HK2 inhibitors, 10 and 30 μM of compounds H2 and H10 treated FaDu and Cal27 cells were stained with annexin V conjugated with FITC, followed by propidium iodide staining.

FaDu cells = assay: Mitochondria membrane potential by TMRE uptake, FaDu; details: 30 μM, 4 h
Method: (§1) FaDu and Cal27 cells were treated with test compounds (0.2 million cells per treatment) and were incubated for 1 h with 100 μM of 2-NBDG (Invitrogen, N13195), in glucose free medium, washed with ice-cold PBS, and re-suspended in 500 μL of PBS and maintained on ice to perform flow cytometric analyses within 30 min. The mean fluorescent intensity (MFI) readout reflects the amount of fluorescent glucose analog taken up by the cells, providing insight into their glucose uptake capacity. The percent (%) cell population positive for glucose uptake (shown with a right shift of the histogram peaks) were also plotted for both the cell lines. For MMP analysis, cells were incubated with 200 nM of TMRE (Invitrogen, T669) for 30 min. For each measurement, data was collected for 10,000 events using a BD FACS Aria III (Becton Dickinson, San Jose, CA) instrument.
(§2) Mitochondria utilize the oxidizable substrates to produce a membrane potential as the proton gradient ([Sivandzade et al., 2019]). […] To determine the change in MMP post-treatment with HK2 inhibitors, the cells were treated with 200 nM of TMRE (tetramethyl rhodamine ethyl ester, a cell-permeant cationic dye readily sequestered by active mitochondria) and flow cytometric analyses of TMRE uptake was carried out. […]

Cal27 cells [2] = assay: Mitochondria membrane potential by TMRE uptake, Cal27; details: Cal27, 30 μM, 4 h
Method: as §1, §2

[3] = test system: mitochondrial HK2 (mitoHK2) in Cal27 cells; assay: Western blot fractionation, mitoHK2 dissociation; details: 4 h
Method: Cal27 cells were treated with the test compound (1 million cells per treatment for 4 h) and were processed for mitochondria isolation using a homogenization buffer containing 210 mM mannitol, 70 mM sucrose, 5 mM tris-HCl, (pH 7.5) and 1 mM EDTA (pH 7.5). The cell pellet was sheared with a total of 90 strokes in the homogenization buffer in a span of 1 h on ice. The lysate was centrifuged at 800 rpm for 10 min and the mitochondria enriched supernatant was isolated. The pellet was again lysed using RIPA lysis buffer to obtain the cytosolic fraction. The mitochondrial fractions and the cytosolic fractions were loaded on a 10% SDS-PAGE gel. The antibodies used were anti-HK2 antibody (CST, Cat#2867), anti β-actin antibody (CST, Cat#4970) and mitochondrial marker anti-VDAC antibody (CST, Cat# 4661). The whole cell lysates were obtained using RIPA lysis buffer alone. The quantifications were performed using ImageJ software.
as §2

With `COc1ccc(CNC(=O)c2nc3ccccc3s2)cc1O` [Compound 14, N-(3-hydroxy-4methoxybenzyl)benzo[d]thiazole-2-carboxamide] the “effect on cell cycle progression” value (Cal27 cells [1]) was “G0/G1 phase arrest”, the “MMP reduction compared to H10 and CCCP” value (FaDu cells) was “more effective in reducing the MMP” and the “MMP reduction compared to H10 and CCCP” value (Cal27 cells [2]) was “more effective in reducing the MMP”. The “mitochondrial HK2 (mitoHK2) dissociation” value ([3]; Cal27, 30 μM) was “induced the dissociation of mitoHK2” and the “expression of total HK2 protein” value ([3]; Cal27 whole cell lysate, 30 μM) was “without altering the expression of total HK2 protein”.
